From patent EP4122499A1, “FIBROBLAST ACTIVATION PROTEIN INHIBITORS AND USE THEREOF” (3B Pharmaceuticals GmbH, priority 2021, dated 2023)

Legend:
recombinant human PREP = biological target: T1, recombinant human PREP (Homo sapiens, UniProt P48147); assay: PREP protease activity assay; assay type: biochemical; conditions: 50 µM Z-GP-AMC substrate
T1 construct: purchased R&D systems 4308-SE
T1 sequence (P48147 1-710): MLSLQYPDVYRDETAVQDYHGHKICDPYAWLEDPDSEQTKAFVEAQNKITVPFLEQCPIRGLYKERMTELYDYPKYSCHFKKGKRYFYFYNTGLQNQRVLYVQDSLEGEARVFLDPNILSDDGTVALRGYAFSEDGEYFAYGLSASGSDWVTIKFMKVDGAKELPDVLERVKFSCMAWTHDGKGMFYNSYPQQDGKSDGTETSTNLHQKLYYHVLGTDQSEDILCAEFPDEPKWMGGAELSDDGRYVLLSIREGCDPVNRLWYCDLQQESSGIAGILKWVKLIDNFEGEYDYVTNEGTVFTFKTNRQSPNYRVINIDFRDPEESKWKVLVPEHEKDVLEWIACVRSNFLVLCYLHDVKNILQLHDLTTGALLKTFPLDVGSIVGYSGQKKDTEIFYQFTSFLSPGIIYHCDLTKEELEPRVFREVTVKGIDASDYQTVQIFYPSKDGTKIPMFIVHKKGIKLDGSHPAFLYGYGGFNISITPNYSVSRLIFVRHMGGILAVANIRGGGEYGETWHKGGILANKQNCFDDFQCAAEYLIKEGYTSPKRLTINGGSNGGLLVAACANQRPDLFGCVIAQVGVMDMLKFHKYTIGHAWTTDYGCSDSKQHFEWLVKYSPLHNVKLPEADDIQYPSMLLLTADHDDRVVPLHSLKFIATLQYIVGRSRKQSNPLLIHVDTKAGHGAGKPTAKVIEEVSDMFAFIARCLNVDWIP
Procedure: (§1) The PREP activity assay was performed using the FACS buffer (PBS including 1% FBS, Sigma-Aldrich, Cat# D8537). […] The DPP4 activity assay was performed in DPP assay buffer (25 mM Tris, pH 8.0).
(§2) Four parameter logistic (4PL) curve fitting and pIC50 calculations were performed using ActivityBase software.

Human recombinant FAP [1] = biological target: T2, Human recombinant FAP (Homo sapiens, UniProt Q12884); assay: Surface plasmon resonance assay (Biacore T200, single cycle kinetics); assay type: binding; conditions: SPR, 25°C
T2 sequence (Q12884 1-760): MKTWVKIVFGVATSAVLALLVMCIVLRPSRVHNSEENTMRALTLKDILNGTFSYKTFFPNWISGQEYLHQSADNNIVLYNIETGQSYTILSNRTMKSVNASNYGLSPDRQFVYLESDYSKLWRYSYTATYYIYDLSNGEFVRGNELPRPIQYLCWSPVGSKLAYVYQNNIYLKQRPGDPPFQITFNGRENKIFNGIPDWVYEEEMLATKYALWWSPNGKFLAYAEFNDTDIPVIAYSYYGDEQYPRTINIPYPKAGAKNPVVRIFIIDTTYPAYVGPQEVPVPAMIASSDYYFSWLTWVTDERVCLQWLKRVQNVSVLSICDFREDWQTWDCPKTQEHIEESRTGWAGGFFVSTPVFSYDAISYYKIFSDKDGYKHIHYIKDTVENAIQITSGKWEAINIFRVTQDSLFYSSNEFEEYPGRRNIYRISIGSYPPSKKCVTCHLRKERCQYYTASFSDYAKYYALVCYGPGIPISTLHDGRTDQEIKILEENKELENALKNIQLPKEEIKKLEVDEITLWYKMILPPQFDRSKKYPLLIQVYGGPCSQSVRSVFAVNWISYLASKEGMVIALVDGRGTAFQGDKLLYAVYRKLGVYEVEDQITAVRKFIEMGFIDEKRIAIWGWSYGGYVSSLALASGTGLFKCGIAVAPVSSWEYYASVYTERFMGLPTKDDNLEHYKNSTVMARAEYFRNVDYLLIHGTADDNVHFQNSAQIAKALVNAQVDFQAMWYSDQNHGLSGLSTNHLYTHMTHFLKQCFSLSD
Procedure: Surface plasmon resonance studies were performed using a Biacore™ T200 SPR system (Cytiva, formerly GE Healthcare). Briefly, polarized light is directed towards a gold-labeled sensor surface, and minimum intensity reflected light is detected. The angle of reflected light changes as molecules bind and dissociate. […] Test compounds are contacted with the loaded surface, and a real-time interaction profile with the FAP ligand is recorded in a sensorgram. In real-time, the association and dissociation of a binding interaction is measured, enabling calculation of association and dissociation rate constants and the corresponding affinity constants. Importantly, a background response is generated due to the difference in the refractive indices of the running and sample buffers, as well as unspecific binding of the test compounds to the flow cell surface. This background is measured and subtracted by running the sample on a control flow cell coated with the same density of capture antibody in the absence of immobilized FAP. Furthermore, baseline drift correction of the binding data is performed, which is caused by slow dissociation of the captured FAP from the immobilized antibody. This drift is measured by injecting running buffer through a flow cell with the antibody and FAP immobilized to the sensor surface.
Biacore™ CM5 sensor chips were used. […] A 150 µL aliquot was transferred into plastic vials and placed into the sample rack of the Biacore™ T200 instrument. Amine Coupling Kit Reagent solutions were transferred into plastic vials and placed into the sample rack: 90 µL of 0.4 M 1-ethyl-3-(3-dimethylaminopropyl)carbodiimide (EDC), and 90 µL of 0.1 M N-hydroxysuccinimide (NHS). A 130 µL aliquot of 1 M ethanolamine-HCl, pH 8.5, was transferred into plastic vials and placed into the sample rack. The Biacore™ liquid system was set-up as follows: Separate bottles containing distilled water (1 L), Running Buffer (500 mL), as well as an empty bottle for waste were placed onto the buffer tray. A preinstalled program for immobilization was used, with an immobilization level of 7000 RU. Immobilization was performed at 25°C. The immobilization procedure of anti-FAP antibodies was performed, as described in the Table 5. Table 5: Immobilization protocol for anti-FAP antibodies used on the CM5 sensor chip.
Human recombinant FAP was diluted in Running Buffer to a final concentration of 20 µg/mL. A 100 µL aliquot of human FAP-Working-Solution was transferred into plastic vials and placed into a sample rack. A 0.5 mM Compound-Stock-Solution was prepared by dissolving each compound in DMSO. For each test compound, Compound-Stock-Solutions were diluted in Running Buffer (HBST) at 500 nM and further diluted with HBST-DMSO Buffer (0.1% DMSO). SPR binding analyses for binary complexes were performed in SCK mode at 25°C. Following three SCK measurements, a baseline drift was assessed by injecting running buffer through a flow cell, with the antibody and FAP immobilized to the sensor surface. Table 6: Protocol for assessing the binding kinetics.
For each test compound, SPR raw data in the form of resonance units (RU) were plotted as sensorgrams using the Biacore™ T200 control software. The signal from the blank sensorgram was subtracted from that of the test compound sensorgram (blank corrected). The blank corrected sensorgram was corrected for baseline drift by subtracting the sensorgram of a SCK run without the test compound (running buffer only). The association rate (kon), dissociation rate (koff), dissociation constant (KD), and t1/2 were calculated from Blank-normalized SPR data using the 1:1 Langmuir binding model from the Biacore™ T200 evaluation software. Raw data and fit results were imported as text files in IDBS. The pKD value (negative decadic logarithm of dissociation constant) was calculated in the IDBS excel template.

Recombinant human DPP4 = biological target: T3, Recombinant human DPP4 (Homo sapiens, UniProt P27487); assay: DPP4 protease activity assay; assay type: biochemical; conditions: 20 µM GP-AMC substrate; for IC50: read-out: pIC50 (DPP4) (converted)
T3 construct: purchased R&D systems 9168-SE
Procedure: as §1, §2

Human recombinant FAP [2] = biological target: T2, Human recombinant FAP; assay: FRET-based FAP protease activity assay (human); assay type: biochemical; design: purchased R&D systems 3715-SE; conditions: FRET-peptide substrate, 37°C; for IC50: read-out: pIC50 (Activity) (converted)
Procedure: (§3) In order to determine the inhibitory activity a FRET-based FAP protease activity assay was established.
25 µL of a 30 µM substrate solution, diluted in assay buffer, was added. […] Four parameter logistic (4PL) curve fitting and pIC50 calculations were performed using ActivityBase software (IDBS).

[3] = biological target: T4, FAP-expressing human WI-38 fibroblasts (Homo sapiens, UniProt Q12884); assay: Competitive FACS binding assay (displacement of Cy5-labeled FAP inhibitor 3BP-2935); conditions: 3 nM Cy5-labeled 3BP-2935, 4°C, 1 hour
T4 construct: FAP-expressing human WI-38 fibroblasts (ECACC 90020107) were cultured in EMEM; host or cells: WI-38 human fibroblasts
T4 sequence (Q12884 1-760): T2 sequence (Q12884 1-760)
Procedure: In order to determine binding of compounds according to the present invention to FAP-expressing cells, a competitive FACS binding assay was established.
Cells were diluted in FACS buffer to a final concentration of 100.000 cells per ml and 200 µl of the cell suspension are transferred to a u-shaped non-binding 96-well plate (Greiner).
Cell were washed twice with FACS buffer (see above) and resuspended in 200 µl FACS buffer. Cells were analyzed in an Attune NxT flow cytometer (Thermo Fisher Scientific). Median fluorescence intensities (Cy5 channel) was calculated by Attune NxT software and plotted against test compound concentrations. Four parameter logistic (4PL) curve fitting and pIC50 calculations were performed using ActivityBase software.

Recombinant mouse FAP = biological target: T5, Recombinant mouse FAP (Mus musculus, UniProt P97321); assay: FRET-based FAP protease activity assay (mouse); assay type: biochemical; conditions: FRET-peptide substrate, 37°C
T5 construct: purchased R&D systems 8647-SE
T5 sequence (P97321 1-761): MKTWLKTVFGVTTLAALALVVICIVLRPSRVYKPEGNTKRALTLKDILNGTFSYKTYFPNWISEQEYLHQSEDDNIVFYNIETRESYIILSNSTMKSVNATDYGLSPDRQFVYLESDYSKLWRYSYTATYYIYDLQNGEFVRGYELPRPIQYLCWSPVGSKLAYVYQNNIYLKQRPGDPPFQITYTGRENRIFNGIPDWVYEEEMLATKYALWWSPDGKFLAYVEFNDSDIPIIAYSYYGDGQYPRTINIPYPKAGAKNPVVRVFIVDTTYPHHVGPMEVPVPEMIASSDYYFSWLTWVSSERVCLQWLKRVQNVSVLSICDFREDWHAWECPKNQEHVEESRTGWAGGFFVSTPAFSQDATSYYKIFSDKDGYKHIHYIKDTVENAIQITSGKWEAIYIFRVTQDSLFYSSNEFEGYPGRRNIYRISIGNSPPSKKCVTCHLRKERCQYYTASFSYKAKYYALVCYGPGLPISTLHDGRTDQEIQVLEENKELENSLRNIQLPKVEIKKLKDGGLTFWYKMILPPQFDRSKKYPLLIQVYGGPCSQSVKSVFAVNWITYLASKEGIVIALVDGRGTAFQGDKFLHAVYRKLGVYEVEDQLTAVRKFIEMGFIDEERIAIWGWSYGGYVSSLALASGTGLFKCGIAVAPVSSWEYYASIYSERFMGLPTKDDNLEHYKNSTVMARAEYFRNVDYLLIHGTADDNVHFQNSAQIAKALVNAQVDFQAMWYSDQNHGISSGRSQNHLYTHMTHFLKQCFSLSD
Procedure: as §3
25 µL of a 30 µM substrate solution, diluted in assay buffer, was added. […] Four parameter logistic (4PL) curve fitting and pIC50 calculations were performed using ActivityBase software.

T3 sequence (P27487 whole entry): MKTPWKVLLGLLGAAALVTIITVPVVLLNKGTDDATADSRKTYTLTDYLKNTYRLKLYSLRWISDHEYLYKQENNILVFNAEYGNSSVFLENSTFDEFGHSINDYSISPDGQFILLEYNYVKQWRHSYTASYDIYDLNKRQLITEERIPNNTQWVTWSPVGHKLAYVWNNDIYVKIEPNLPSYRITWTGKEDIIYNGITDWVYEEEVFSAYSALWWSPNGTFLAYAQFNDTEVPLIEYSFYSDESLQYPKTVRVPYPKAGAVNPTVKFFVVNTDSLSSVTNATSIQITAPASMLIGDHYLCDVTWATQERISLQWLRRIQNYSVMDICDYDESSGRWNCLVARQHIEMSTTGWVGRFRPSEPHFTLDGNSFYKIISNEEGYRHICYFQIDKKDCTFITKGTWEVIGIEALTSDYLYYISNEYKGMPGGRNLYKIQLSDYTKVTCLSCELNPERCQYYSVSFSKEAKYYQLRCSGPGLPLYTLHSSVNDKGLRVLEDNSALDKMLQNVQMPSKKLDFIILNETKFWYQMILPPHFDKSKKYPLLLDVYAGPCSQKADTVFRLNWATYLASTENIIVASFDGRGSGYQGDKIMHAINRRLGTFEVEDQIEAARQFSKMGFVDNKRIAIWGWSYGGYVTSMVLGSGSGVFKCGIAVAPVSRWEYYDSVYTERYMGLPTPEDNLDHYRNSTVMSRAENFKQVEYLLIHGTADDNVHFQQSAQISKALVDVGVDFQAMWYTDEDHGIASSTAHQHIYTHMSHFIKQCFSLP

IC50 (recombinant human PREP) [nM]	IC50 (Recombinant human DPP4) [nM]	IC50 (Human recombinant FAP [2]) [nM]	IC50 [3] [nM]	Compound	pIC50 (PREP) (recombinant human PREP)	pKD (Biacore) (Human recombinant FAP [1]; 1:1 Langmuir binding model)	HL [min] (Biacore) (Human recombinant FAP [1]; half-life)	pIC50 (DPP4) (Recombinant human DPP4)	pIC50 (Activity) (Human recombinant FAP [2])	pIC50 (FACS) [3]	pIC50 (mouseFAP) (Recombinant mouse FAP)
				CS(=O)(=O)c1ccc(-c2ccc3c(C(=O)NCC(=O)N4CC(F)(F)C[C@H]4C#N)ccnc3c2)cc1	<6	10	37	<6	9.1	8.5	
> 1000	> 1000	1.58	2.51	N#C[C@@H]1CCCN1C(=O)CNC(=O)c1ccnc2cc(-c3cccc(C(=O)O)c3)ccc12							
> 1000	> 1000	1.58	3.16	N#C[C@@H]1CCCN1C(=O)CNC(=O)c1ccnc2ccc(-c3cccc(C(=O)O)c3)cc12							
				N#C[C@@H]1CCCN1C(=O)CNC(=O)c1cc[n+]([O-])c2ccccc12	6.3			<6	7.6	7.1	7.5
